# Assay results as given in US4816441A, “Peptides and compositions” (priority 1985, dated 1989).
# Experiments:
# Raji = experiment: NK-like activity of PBL incubated with SpA peptides or intact SpA, 51Cr release, Raji targets; format: cell-based, human; conditions: E/T 10:1
# Method: (§1) K-cell activity is here defined as the increase in cell mediated cytotoxicity of normal peripheral blood leukocytes (PBL) against tumor derived target cells. PBL were isolated by the Boyum method (Scand.J.Clin.Lab.Invest. 22 (1968) 77) by centrifugation of heparinized blood from healthy donors on Ficoll-Hypaque® (Pharmacia, Uppsala, Sweden). In many experiments adherent cells were removed by incubating PBL in sterile glass bottles at 37° C. for 1 to 2 hours.
# (§2) The cell lines were kept in culture in RPMI 1640 (Gibco, Paisley, Scotland, Cat. No. 041-1875) to which was added fetal calf serum (10% v/v) (FCS) as well as penicillin (100 IU/ml) and streptomycin (100 μg/ml) at 37° C. and carbon dioxide in air.
# (§3) The target cells were labelled with ^51 Cr (New England Nuclear, Dreieich, West Germany).
# (§4) The medium used was RPMI 1640 to which was added 10% of FCS, penicillin (100 IU/ml) and streptomycin (100 μg/ml). After incubation, the cell density was adjusted and the cells were distributed in round-bottom microtiter plates (NUNC, Roskilde, Denmark). ^51 Cr-labeled K562 target cells were added to a desired ratio between effector (E) and target (T) cells (E/T 10:1). After a further 4 hours of incubation at 37° C. with 6% CO2 in air, the plates were placed on a Titertek® microtiter plate shaker (Flow Laboratories Ltd., Ayrshire, Scotland). The microtiter plates were centrifuged and known volumes of the supernatant removed by suction and counted ^51 Cr-sample). As maximum value (^51 Cr-max), use was made of the supernatant from K562 incubated with saponin. The spontaneous release of ^51 Cr (^51 Cr-spont) was measured by incubating ^51 Cr-K562 without effector cells.
# (§5) Kill %: […]
# (§6) The method employed was practically the same as above for Daudi and Raji targets. The only substantial difference was that no preincubation was performed prior to addition of the ^51 Cr-labelled target cells, and the complete incubation of effector and target cells was done in 24 hours. The Kill % was calculated as described above.
# Daudi [1] = experiment: NK-like activity of PBL incubated with SpA peptides or intact SpA, 51Cr release, Daudi targets; format: cell-based, human; conditions: E/T 10:1
# Method: as §1, §2, §3, §4, §5, §6
# Daudi [2] = experiment: Long-term test, LAK-like activity, Daudi targets; format: cell-based, human; conditions: 20 μg/ml; E/T 10:1
# Method: 6×10^6 monocyte-depleted mononuclear cells were incubated in 6 ml RPMI 1640 +5% FCS, penicillin (100 IU/ml) and streptomycin (100 μg/ml) in vertically suspended Falcon flasks (Falcon Plastics, Oxnard, CA., USA, Cat. No. 3013). As in the short-term test, 1.5, 6, 25 or 100 μg peptide per ml, respectively, were added. […] Incubation for 72 h at 37° C., 7% CO2. The cells were counted, density adjusted and the cells incubated together with ^51 Cr-labelled Raji and Daudi target cells. E/T ratios were: 10:1 and 20:1. In the Daudi test the incubation lasted 16 hours, in the Raji test it was 18 hours (round-bottom microtiter plates, as above).
# complement system = experiment: Activation of complement: generation of C5a des-Arg in normal human serum (RIA); format: biochemical; conditions: 60 minutes incubation, aliquots at 0, 30, 60 minutes, FIG. 4
# Method: In order to investigate the influence of the compounds of the invention on the complement system a test was performed in which the generation of the complement split product C5a was used as a measure of the activation of complement.
# Aliquots were taken after 0, 30, and 60 minutes and the generated C5a des-Arg was quantitated by a commercial RIA-kit (Upjohn Company, Kalamazoo, MI).
# [3] = Guinea pig model: anaphylactoid-like reaction after intravenous administration; format: in vivo, guinea pigs of Dunkin-Hartley strain; conditions: anaesthesized artificially ventilated guinea pigs
# Method: Guinea pigs of Dunkin-Hartley strain (ca. 500 g) were anaesthesized with sodium pentobarbital and were surgically prepared with a catheter in the jugular vein for drug infusion. The blood pressure was registered from a carotid artery. The animals were artificially ventilated by a Harvard small animal respirator at a cycle of 38 insufflations per min. and a volume of 1 ml per 100 g animal.
substance,measurement,setting,value
"SpA: protein A from Staphylococcus aureus, purified, from Pharmacia, Uppsala, Sweden",% kill Raji,Raji; 5 μg/ml (12.5 pmol/ml),31%
same,% kill Raji,Raji; 5 μg/ml (125 pmol/ml),46%
same,% kill Raji,Raji; 10 μg/ml (250 pmol/ml),46%
same,% kill Daudi,Daudi [1]; 5 μg/ml (12.5 pmol/ml),66%
same,% kill Daudi,Daudi [1]; 5 μg/ml (125 pmol/ml),71%
same,% kill Daudi,Daudi [1]; 10 μg/ml (250 pmol/ml),77%
same,"Stimulation index, long-term assay (LAK-like activity), Daudi",Daudi [2],1.19
same,Activation of complement (C5a des-Arg generation),complement system,considerable C5a generating capacity
same,"Anaphylactoid-like reaction (bronchoconstriction, hypertension, later hypotension)",[3],produced an anaphylactoid-like reaction
